{"source": "patent US20170245538A1", "about": "“SOLID DISPERSION OF AMIDE FLAVOR COMPOUNDS” (Firmenich SA, priority 2014, published 2017)", "assay": "dissolution kinetics in water followed on-line by UV/Vis spectroscopy", "format": "physicochemical", "settings": "20 mg pure compound in 1L milli Q water at 60° C.", "experimental": "The dissolution kinetics of example 4 in water was tested. A final concentration of (E)-3-(3,4-dimethoxyphenyl)-N-(4-methoxyphenethyl)acrylamide of 20 ppm dissolved in water was targeted. Eighty (80) mg of a solid dispersion of (E)-3-(3,4-dimethoxyphenyl)-N-(4-methoxyphenethyl)acrylamide and gum arabic was dispersed in 1L of milli Q water heated at 60° C. The solution was stirred mechanically by the means of a paddle stirrer at 200 rpm. The dissolution process was followed on-line by monitoring the UV signal of dissolved (E)-3-(3,4-dimethoxyphenyl)-N-(4-methoxyphenethyl)acrylamide with UV/Vis spectroscopy using a fiber optic probe from Ocean Optics. The powder was entirely dissolved after 2 minutes. The maximum dissolution rate during the process was 28 ppm/minute.\nComparative example: (E)-3-(3,4-dimethoxyphenyl)-N-(4-methoxyphenethyl)acrylamide pure. A final concentration of (E)-3-(3,4-dimethoxyphenyl)-N-(4-methoxyphenethyl)acrylamide of 20 ppm dissolved in water was targeted. Twenty (20) mg of the pure (E)-3-(3,4-dimethoxyphenyl)-N-(4-methoxyphenethyl)acrylamide were dispersed in 1L of milli Q water heated at 60° C. The dissolution process yielded 50% of the target concentration of 20 ppm (10 ppm) after 78 minutes. The target concentration could not be achieved after 6 hours. The concentration of dissolved (E)-3-(3,4-dimethoxyphenyl)-N-(4-methoxyphenethyl)acrylamide after 6 hours was 15 ppm (75% of target)."}
{"smiles": "COc1ccc(CCNC(=O)/C=C/c2ccc(OC)c(OC)c2)cc1", "note": "[(E)-3-(3,4-dimethoxyphenyl)-N-(4-methoxyphenethyl)acrylamide]", "values": [{"measurement": "time to 50% of the target concentration of 20 ppm (10 ppm)", "value": 78, "unit": "min"}, {"measurement": "concentration of dissolved compound after 6 hours", "setting": "after 6 hours", "value": 15, "unit": "ppm"}, {"measurement": "dissolved compound after 6 hours as % of target", "setting": "after 6 hours, target 20 ppm", "value": "75 % of target"}, {"measurement": "time to achieve the target concentration (20 ppm)", "setting": "target could not be achieved", "value": "> 6", "unit": "h"}]}
